The target of the experiment is T1, human NaPi-IIb (Homo sapiens, UniProt O95436).
T1 construct: expressed in transfected cells
T1 sequence (O95436 1-690): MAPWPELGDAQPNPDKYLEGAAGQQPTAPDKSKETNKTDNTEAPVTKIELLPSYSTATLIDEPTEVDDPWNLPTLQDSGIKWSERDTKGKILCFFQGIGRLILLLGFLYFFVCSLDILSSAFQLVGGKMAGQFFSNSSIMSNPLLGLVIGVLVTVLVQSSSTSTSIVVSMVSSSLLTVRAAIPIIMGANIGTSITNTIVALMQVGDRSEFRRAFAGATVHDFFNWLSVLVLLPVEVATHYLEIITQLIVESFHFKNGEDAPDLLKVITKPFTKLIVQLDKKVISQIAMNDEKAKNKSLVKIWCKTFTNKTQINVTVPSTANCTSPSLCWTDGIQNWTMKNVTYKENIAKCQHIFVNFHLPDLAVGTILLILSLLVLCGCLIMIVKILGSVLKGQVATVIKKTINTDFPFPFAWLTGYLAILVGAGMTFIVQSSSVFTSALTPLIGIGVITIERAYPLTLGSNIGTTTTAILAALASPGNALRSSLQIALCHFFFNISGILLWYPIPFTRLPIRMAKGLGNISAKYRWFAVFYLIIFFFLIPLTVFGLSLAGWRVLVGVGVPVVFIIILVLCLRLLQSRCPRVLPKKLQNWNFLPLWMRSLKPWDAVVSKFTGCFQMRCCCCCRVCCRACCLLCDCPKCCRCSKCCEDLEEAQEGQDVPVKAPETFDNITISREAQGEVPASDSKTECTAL
The experiment can be described thus: Inhibitory effect on 33PO4 uptake into human NaPi-IIb-expressing CHO cells. Format: cell-based. Here is the method:
Test Example 2: Inhibitory Effect on PO4 Uptake into Human NaPi-IIb-Expressing Cell CHO cells were transfected with human NaPi-IIb expression plasmids, and a stably human NaPi-IIb-expressing cell line was obtained using G418. The human NaPi-IIb-expressing cells were inoculated to a 96-well plate and incubated overnight in a CO2 incubator. […] After a given time, a 1/20 volume of buffer A containing ^33PO4 was added thereto and reacted at room temperature. After washing with ice-cold buffer A, a liquid scintillator was added to each reaction mixture, and the amount of ^33PO4 uptake was measured using TopCount.

[1] abbreviates: read-out: IC50 against 33PO4 uptake into human NaPi-IIb-expressing cells.

From patent publication US9499553B2 (CHUGAI SEIYAKU KABUSHIKI KAISHA, priority 2013, dated 2016) come the findings set out here.

Molecules are shown by their SMILES. Where two headings read alike, the source gives them in different places.

As a reminder, the IC50 is the concentration needed to halve the response being measured. On to `CN1N(Cc2ccc(OCCN3CCOCC3)c(F)c2F)C(=O)C(C(=O)Nc2ccc(C(F)(F)F)cc2-c2cc(C(F)(F)F)ncn2)=C(O)C1(C)C` [Example 313, 2-[[2,3-Difluoro-4-(2-morpholin-4-ylethoxy)phenyl]methyl]-5-hydroxy-1,6,6-trimethyl-3-oxo-N-[4-(trifluoromethyl)-2-[6-(trifluoromethyl)pyrimidin-4-yl]phenyl]pyridazine-4-carboxamide], for which, where the note is “read-out: IC50”, the IC50 turned out to be 18.3 µM.

With `C[C@]12CCCN1N(Cc1cc(F)ccc1Br)C(=O)C(C(=O)Nc1cc(F)c(Br)c(F)c1)=C2O` [Example 217], the IC50 (read-out: IC50) was found to be 4.7 µM.

`C[C@]12CCCN1N(Cc1cccc(F)c1F)C(=O)C(C(=O)Nc1ccc(C(F)(F)F)cc1-c1cnc(Cl)nc1)=C2O` [Example 67]: the IC50 (read-out: IC50) stood at 2 µM.

`CN1N(Cc2ccc(OCCCOC[C@H](O)CO)c(F)c2F)C(=O)C(C(=O)Nc2ccc(C(F)(F)F)cc2-c2cc(C(F)(F)F)ncn2)=C(O)C12CCC2` [Example 389]: the half-inhibitory concentration (IC50) under setting [1] was found to be 24.6 µM.

For `C[C@]12CCCN1N(Cc1cc(F)cc(F)c1)C(=O)C(C(=O)Nc1cc(F)c(Br)c(F)c1)=C2O` [Example 190], the IC50 (read-out: IC50) worked out at 5.1 µM.

For `C[C@]12CCCN1N(Cc1cccc(OC(F)F)c1)C(=O)C(C(=O)Nc1ccc(C(F)(F)F)cc1-c1cc(C(F)(F)F)ncn1)=C2O` [Example 177], under “read-out: IC50”, the IC50 worked out at 11.1 µM.

Consider `CSc1ccc(-c2cc(C(F)(F)F)ccc2NC(=O)C2=C(O)C(C)(C)N(C)N(Cc3cccc(F)c3F)C2=O)cn1` [Example 310], for which the IC50 (read-out: IC50) was found to be 4.7 µM.

For the molecule `CN1N(Cc2ccc(OCCCCOC[C@H](O)CO)c(F)c2F)C(=O)C(C(=O)Nc2ccc(C(F)(F)F)cc2-c2cc(C(F)(F)F)ncn2)=C(O)C12CCC2` [Example 390], the IC50 under setting [1] came to 7.8 µM.

As for `Cc1ncc(-c2cc(C(F)(F)F)ccc2NC(=O)C2=C(O)[C@@]3(C)CCCN3N(Cc3cccc(F)c3F)C2=O)cc1C#N` [Example 109, (4aR)—N-[2-(5-Cyano-6-methylpyridin-3-yl)-4-(trifluoromethyl)phenyl]-1-[(2,3-difluorophenyl)methyl]-4-hydroxy-4a-methyl-2-oxo-6,7-dihydro-5H-pyrrolo[1,2-b]pyridazine-3-carboxamide], the IC50 (read-out: IC50) was found to be 9.4 µM.

For `CN1N(Cc2ccc(OCCN3CCOCC3)c(F)c2F)C(=O)C(C(=O)Nc2ccc(C(F)(F)F)cc2-c2cc(C(F)(F)F)ncn2)=C(O)C12CCCC2` [Example 318, 7-[[2,3-Difluoro-4-(2-morpholin-4-ylethoxy)phenyl]methyl]-10-hydroxy-6-methyl-8-oxo-N-[4-(trifluoromethyl)-2-[6-(trifluoromethyl)pyrimidin-4-yl]phenyl]-6,7-diazaspiro[4.5]dec-9-ene-9-carboxamide], the IC50 (read-out: IC50) was 8.6 µM.

On to `COCCOCCOCCCCCCCCN1C(=O)C(C(=O)Nc2ccc(C(F)(F)F)cc2-c2cc(C(F)(F)F)ncn2)=C(O)[C@@]2(C)CCCN12` [Example 236], for which, for the setting “read-out: IC50”, the IC50 amounted to 24.7 µM.

For `C[C@@]12CCCN1N(Cc1ccc(OCCN3CCOCC3)c(F)c1F)C(=O)C(C(=O)Nc1ccc(C(F)(F)F)cc1-c1cc(C(F)(F)F)ncn1)=C2O` [Example 108], the IC50 (read-out: IC50) turned out to be 26.1 µM.

In the case of `Cc1ccc(CN2C(=O)C(C(=O)Nc3ccc(C(F)(F)F)cc3-c3cc(C(F)(F)F)ncn3)=C(O)[C@@]3(C)CCCN23)cc1` [Example 187], the concentration for half-maximal inhibition (IC50) (read-out: IC50) is 6.7 µM.

On to `COc1cccc(-c2cc(C(F)(F)F)ccc2NC(=O)C2=C(O)[C@@]3(C)CCCN3N(Cc3ccc(C#CCOCCOCCO)c(F)c3F)C2=O)c1OC` [Example 139], for which the IC50 (read-out: IC50) stood at 17 µM.

For `CSc1ncc(-c2cc(C(F)(F)F)ccc2NC(=O)C2=C(O)[C@@]3(C)CCCN3N(Cc3ccc(OCCN4CCOCC4)c(F)c3F)C2=O)cn1` [Example 104], the IC50 (read-out: IC50) came to 10.8 µM.

Regarding `COc1cccc(-c2cc(C(F)(F)F)ccc2NC(=O)C2=C(O)[C@@]3(C)CCCN3N(Cc3ccc(C#CCCO)c(F)c3F)C2=O)c1OC` [Example 134], under “read-out: IC50”, the IC50 turned out to be 19.7 µM.

Consider `COc1cncc(-c2cc(C(F)(F)F)ccc2NC(=O)C2=C(O)[C@@]3(C)CCCN3N(Cc3cccc(F)c3F)C2=O)c1` [Example 81], for which, under “read-out: IC50”, the IC50 was determined as 17.5 µM.

For `COCCN(C)CCNc1ccc(CN2C(=O)C(C(=O)Nc3ccc(C(F)(F)F)cc3-c3cc(C(F)(F)F)ncn3)=C(O)C3(CCCC3)N2C)c(F)c1F` [Example 417, 7-(2,3-Difluoro-4-((2-((2-methoxyethyl)(methyl)amino)ethyl)amino)benzyl)-10-hydroxy-6-methyl-8-oxo-N-(4-(trifluoromethyl)-2-(6-(trifluoromethyl)pyrimidin-4-yl)phenyl)-6,7-diazaspiro[4.5]dec-9-ene-9-carboxamide], the half-inhibitory concentration (IC50) under setting [1] came to 2.2 µM.

Consider `C[C@]12CCCN1N(Cc1cccc(F)c1F)C(=O)C(C(=O)Nc1ccc(C(F)(F)F)cc1-c1cnc(Cl)c(C#N)c1)=C2O` [Example 68, (4aR)—N-[2-(6-Chloro-5-cyanopyridin-3-yl)-4-(trifluoromethyl)phenyl]-1-[(2,3-difluorophenyl)methyl]-4-hydroxy-4a-methyl-2-oxo-6,7-dihydro-5H-pyrrolo[1,2-b]pyridazine-3-carboxamide], for which the IC50 (read-out: IC50) came out at 2.6 µM.

For `C[C@@H]1COC[C@H](C)N1CCOc1ccc(CN2C(=O)C(C(=O)Nc3ccc(C(F)(F)F)cc3-c3cc(C(F)(F)F)ncn3)=C(O)C3(CCC3)N2C)c(F)c1F` [Example 344], the IC50 (read-out: IC50) was 13.7 µM.

In the case of `C[C@]12CCCN1N(Cc1ccccc1Br)C(=O)C(C(=O)Nc1cc(F)c(Br)c(F)c1)=C2O` [Example 216], where the note is “read-out: IC50”, the IC50 was 8 µM.

In the case of `C[C@]12CCCN1N(Cc1cccc(OC(F)F)c1)C(=O)C(C(=O)Nc1ccc(C(F)(F)F)cc1-c1ccc(C(F)(F)F)nc1)=C2O` [Example 167], the IC50 (read-out: IC50) was found to be 4.3 µM.

`CN1N(Cc2ccc(OCCCCOC[C@H](O)CO)c(F)c2F)C(=O)C(C(=O)Nc2ccc(C(F)(F)F)cc2-c2ccc(C(F)(F)F)nc2)=C(O)C12CCC2` [Example 384]: the IC50 under setting [1] amounted to 11 µM.

For `CN1N(Cc2ccc(OCCN3CC(F)(F)C3)c(F)c2F)C(=O)C(C(=O)Nc2ccc(C(F)(F)F)cc2-c2cc(C(F)(F)F)ncn2)=C(O)C12CCCC2` [Example 369], under setting [1], the IC50 was 21.8 µM.

With `C[C@]12CCCN1N(Cc1ccc(C#N)cc1)C(=O)C(C(=O)Nc1cc(F)c(Br)c(F)c1)=C2O` [Example 222], under “read-out: IC50”, the IC50 was found to be 17.6 µM.

For `CN1[C@@H](C(C)(C)C)C(O)=C(C(=O)Nc2ccc(Cl)cc2-c2cc(C(F)(F)F)ncn2)C(=O)N1Cc1cccc(F)c1F` [Example 237], the IC50 (read-out: IC50) was 12.8 µM.

For the molecule `C[C@]12CCCN1N(Cc1ccc(F)c(F)c1)C(=O)C(C(=O)Nc1cc(F)c(Br)c(F)c1)=C2O` [Example 191], where the note is “read-out: IC50”, the concentration for half-maximal inhibition (IC50) is 14.5 µM.

As to `CN(C)C(=O)N1CCN(CCOc2ccc(CN3C(=O)C(C(=O)Nc4ccc(C(F)(F)F)cc4-c4cc(C(F)(F)F)ncn4)=C(O)C4(CCC4)N3C)c(F)c2F)CC1` [Example 364], the IC50 under setting [1] amounted to 20.9 µM.

For the molecule `C[C@]12CCCN1N(Cc1ccccc1C#N)C(=O)C(C(=O)Nc1cc(F)c(Br)c(F)c1)=C2O` [Example 218], the IC50 (read-out: IC50) was 7.2 µM.

As for `COCCCN(C)C(=O)c1cc(CN2C(=O)C(C(=O)Nc3ccc(C(F)(F)F)cc3-c3cc(C(F)(F)F)ncn3)=C(O)C3(CCCC3)N2C)c(F)c(F)c1OCCN(C)CCOC` [Example 438], the IC50 under setting [1] came out at 21.9 µM.

Take `CN1N(Cc2ccc(OCCN3CCN(S(C)(=O)=O)CC3)c(F)c2F)C(=O)C(C(=O)Nc2ccc(C(F)(F)F)cc2-c2cc(C(F)(F)F)ncn2)=C(O)C12CCC2` [Example 363]: the IC50 under setting [1] stood at 28 µM.

Take `C[C@]12CCCN1N(Cc1c(F)cccc1F)C(=O)C(C(=O)Nc1ccc(C(F)(F)F)cc1-c1ccc(C(F)(F)F)nc1)=C2O` [Example 203]: the IC50 (read-out: IC50) amounted to 2 µM.

As to `CN1[C@@H](C(C)(C)C)C(O)=C(C(=O)Nc2cc(F)c(Br)c(F)c2)C(=O)N1Cc1cccc(F)c1F` [Example 240], under “read-out: IC50”, the IC50 amounted to 9.1 µM.

Turning to `COCCN(C)CCOCCOCCOc1ccc(CN2C(=O)C(C(=O)Nc3ccc(C(F)(F)F)cc3-c3cc(C(F)(F)F)ncn3)=C(O)C3(CCCC3)N2C)c(F)c1F` [Example 430], the IC50 under setting [1] came to 4.6 µM.

In the case of `CN1[C@@H](C(C)(C)C)C(O)=C(C(=O)Nc2ccc(C(F)(F)F)cc2-c2ccc(C(F)(F)F)nc2)C(=O)N1Cc1ccc(OCCN2CCOCC2)c(F)c1F` [Example 266], the IC50 (read-out: IC50) worked out at 11.6 µM.

For the molecule `COc1cccc(-c2cc(C(F)(F)F)ccc2NC(=O)C2=C(O)[C@@]3(C)CCCN3N(Cc3ccc(CCCOCCOCCOCCO)c(F)c3F)C2=O)c1OC` [Example 142], the IC50 (read-out: IC50) turned out to be 17.6 µM.

Consider `C[C@]12CCCN1N(Cc1cc(F)cc(F)c1)C(=O)C(C(=O)Nc1ccc(C(F)(F)F)cc1-c1ccc(C(F)(F)F)nc1)=C2O` [Example 171], for which the IC50 (read-out: IC50) turned out to be 2.2 µM.

As to `C[C@]12CCCN1N(Cc1ccccc1Cl)C(=O)C(C(=O)Nc1cc(F)c(Br)c(F)c1)=C2O` [Example 219], the IC50 (read-out: IC50) was 4.2 µM.

As for `C[C@]12CCCN1N(Cc1ccc(C#CCN3CCOCC3=O)c(F)c1F)C(=O)C(C(=O)Nc1ccc(Br)c(F)c1)=C2O` [Example 133], under “read-out: IC50”, the IC50 amounted to 13.1 µM.
